# Legend:
# Experiment in all cases: selective drug sensitivity score (sDSS, relative to normal bone marrow) (sDSS (score)); higher = more potent and effective on the cell line relative to normal bone marrow cells
# Details in all cases: 72 h
# KASUMI-10 = test system: KASUMI-10
# RPMI-8402 = test system: RPMI-8402
# COG-LL-394h = test system: COG-LL-394h
# HPB-ALL = test system: HPB-ALL
# COG-LL-355h = test system: COG-LL-355h
# NALM-16 = test system: NALM-16
# NALM-6 = test system: NALM-6
# 697 = test system: 697
# COG-LL-402h = test system: COG-LL-402h
# KASUMI-9 = test system: KASUMI-9
# DND-41 = test system: DND-41
# RCH-ACV = test system: RCH-ACV
# CCRF-CEM = test system: CCRF-CEM
# 380 = test system: 380
# REH = test system: REH
# MOLT-16 = test system: MOLT-16
# KASUMI-2 = test system: KASUMI-2
# MOLT-14 = test system: MOLT-14
# ALL-SIL = test system: ALL-SIL
# MHH-CALL-4 = test system: MHH-CALL-4
# 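Note: ALL cell lines in 384-well plates, five doses spanning 10,000-fold, each plate scaled between vehicle and 100 µmol/L benzalkonium chloride controls, sDSS an adapted area-under-curve metric.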
smiles,measurement,setting,value
Cc1ccc(-n2nc(C(C)(C)C)cc2NC(=O)Nc2ccc(OCCN3CCOCC3)c3ccccc23)cc1 [Doramapimod] (top concentration 10000 nM),selective drug sensitivity score,KASUMI-10,1.16
same,selective drug sensitivity score,RPMI-8402,1.96
same,selective drug sensitivity score,COG-LL-394h,2.16
same,selective drug sensitivity score,HPB-ALL,2.76
same,selective drug sensitivity score,COG-LL-355h,1.26
same,selective drug sensitivity score,NALM-16,7.06
same,selective drug sensitivity score,NALM-6,-0.24
same,selective drug sensitivity score,697,4.96
same,selective drug sensitivity score,COG-LL-402h,2.66
same,selective drug sensitivity score,KASUMI-9,4.56
same,selective drug sensitivity score,DND-41,-0.24
same,selective drug sensitivity score,RCH-ACV,4.56
same,selective drug sensitivity score,CCRF-CEM,-0.24
same,selective drug sensitivity score,380,-0.24
same,selective drug sensitivity score,REH,5.36
same,selective drug sensitivity score,MOLT-16,4.16
same,selective drug sensitivity score,KASUMI-2,-0.24
same,selective drug sensitivity score,MOLT-14,-0.24
same,selective drug sensitivity score,ALL-SIL,-0.24
same,selective drug sensitivity score,MHH-CALL-4,-0.24
Cc1ccc(NS(=O)(=O)c2cccc(C#N)c2)c2[nH]cc(C#N)c12 [E7820] (top concentration 50000 nM),selective drug sensitivity score,KASUMI-10,4.62
same,selective drug sensitivity score,RPMI-8402,17.9
same,selective drug sensitivity score,COG-LL-394h,-1.58
same,selective drug sensitivity score,HPB-ALL,11
same,selective drug sensitivity score,COG-LL-355h,6.22
same,selective drug sensitivity score,NALM-16,1.82
same,selective drug sensitivity score,NALM-6,19.2
same,selective drug sensitivity score,697,21.7
same,selective drug sensitivity score,COG-LL-402h,17.2
same,selective drug sensitivity score,KASUMI-9,12.7
same,selective drug sensitivity score,DND-41,9.82
same,selective drug sensitivity score,RCH-ACV,23.2
same,selective drug sensitivity score,CCRF-CEM,9.12
same,selective drug sensitivity score,380,30.8
same,selective drug sensitivity score,REH,13.7
same,selective drug sensitivity score,MOLT-16,22.6
same,selective drug sensitivity score,KASUMI-2,5.82
same,selective drug sensitivity score,MOLT-14,21.3
same,selective drug sensitivity score,ALL-SIL,20.2
same,selective drug sensitivity score,MHH-CALL-4,7.62
C[C@@H]1CN(C(=O)c2ccc(NC(=O)c3cc(O[C@H](C)c4c(Cl)ccc(F)c4Cl)c(N)nn3)cc2)C[C@H](C)N1 [Ensartinib] (top concentration 1000 nM),selective drug sensitivity score,KASUMI-10,-2.84
same,selective drug sensitivity score,RPMI-8402,0.06
same,selective drug sensitivity score,COG-LL-394h,0.86
same,selective drug sensitivity score,HPB-ALL,-2.84
same,selective drug sensitivity score,COG-LL-355h,1.86
same,selective drug sensitivity score,NALM-16,-2.14
same,selective drug sensitivity score,NALM-6,-0.44
same,selective drug sensitivity score,697,0.26
same,selective drug sensitivity score,COG-LL-402h,-2.34
same,selective drug sensitivity score,KASUMI-9,0.76
same,selective drug sensitivity score,DND-41,-2.84
same,selective drug sensitivity score,RCH-ACV,-1.44
same,selective drug sensitivity score,CCRF-CEM,-0.34
same,selective drug sensitivity score,380,0.06
same,selective drug sensitivity score,REH,-2.24
same,selective drug sensitivity score,MOLT-16,-0.74
same,selective drug sensitivity score,KASUMI-2,-1.54
same,selective drug sensitivity score,MOLT-14,-1.74
same,selective drug sensitivity score,ALL-SIL,1.06
same,selective drug sensitivity score,MHH-CALL-4,-2.84
c1cn2cc(-c3ccc4cn[nH]c4c3)nc(Nc3ccc(N4CCOCC4)cc3)c2n1 [Entospletinib] (top concentration 5000 nM),selective drug sensitivity score,KASUMI-10,-0.64
same,selective drug sensitivity score,RPMI-8402,-0.64
same,selective drug sensitivity score,COG-LL-394h,-0.64
same,selective drug sensitivity score,HPB-ALL,-0.64
same,selective drug sensitivity score,COG-LL-355h,1.06
same,selective drug sensitivity score,NALM-16,-0.64
same,selective drug sensitivity score,NALM-6,1.26
same,selective drug sensitivity score,697,3.16
same,selective drug sensitivity score,COG-LL-402h,0.36
same,selective drug sensitivity score,KASUMI-9,2.96
same,selective drug sensitivity score,DND-41,-0.64
same,selective drug sensitivity score,RCH-ACV,12.3
same,selective drug sensitivity score,CCRF-CEM,-0.64
same,selective drug sensitivity score,380,-0.64
same,selective drug sensitivity score,REH,-0.64
same,selective drug sensitivity score,MOLT-16,-0.64
same,selective drug sensitivity score,KASUMI-2,-0.64
same,selective drug sensitivity score,MOLT-14,-0.64
same,selective drug sensitivity score,ALL-SIL,-0.64
same,selective drug sensitivity score,MHH-CALL-4,-0.64
COc1cc([C@@H]2c3cc4c(cc3[C@@H](O[C@@H]3O[C@@H]5CO[C@@H](C)O[C@H]5[C@H](O)[C@H]3O)[C@H]3COC(=O)[C@H]23)OCO4)cc(OC)c1O [Etoposide] (top concentration 10000 nM),selective drug sensitivity score,KASUMI-10,13
same,selective drug sensitivity score,RPMI-8402,17.4
same,selective drug sensitivity score,COG-LL-394h,7.04
same,selective drug sensitivity score,HPB-ALL,7.74
same,selective drug sensitivity score,COG-LL-355h,6.74
same,selective drug sensitivity score,NALM-16,2.64
same,selective drug sensitivity score,NALM-6,14.1
same,selective drug sensitivity score,697,20.6
same,selective drug sensitivity score,COG-LL-402h,21.4
same,selective drug sensitivity score,KASUMI-9,16.3
same,selective drug sensitivity score,DND-41,11.3
same,selective drug sensitivity score,RCH-ACV,25.1
same,selective drug sensitivity score,CCRF-CEM,20.2
same,selective drug sensitivity score,380,21.3
same,selective drug sensitivity score,REH,20.3
same,selective drug sensitivity score,MOLT-16,28.9
same,selective drug sensitivity score,KASUMI-2,20.9
same,selective drug sensitivity score,MOLT-14,21.5
same,selective drug sensitivity score,ALL-SIL,14.3
same,selective drug sensitivity score,MHH-CALL-4,10.2
CCCCCCCCc1ccc(CCC(N)(CO)CO)cc1 [Fingolimod] (top concentration 10000 nM),selective drug sensitivity score,KASUMI-10,-0.72
same,selective drug sensitivity score,RPMI-8402,-1.12
same,selective drug sensitivity score,COG-LL-394h,1.68
same,selective drug sensitivity score,HPB-ALL,1.68
same,selective drug sensitivity score,COG-LL-355h,6.88
same,selective drug sensitivity score,NALM-16,-0.02
same,selective drug sensitivity score,NALM-6,1.58
same,selective drug sensitivity score,697,-0.22
same,selective drug sensitivity score,COG-LL-402h,-0.92
same,selective drug sensitivity score,KASUMI-9,0.08
same,selective drug sensitivity score,DND-41,1.28
same,selective drug sensitivity score,RCH-ACV,0.98
same,selective drug sensitivity score,CCRF-CEM,0.98
same,selective drug sensitivity score,380,-1.12
same,selective drug sensitivity score,REH,-1.52
same,selective drug sensitivity score,MOLT-16,5.38
same,selective drug sensitivity score,KASUMI-2,-0.82
same,selective drug sensitivity score,MOLT-14,2.08
same,selective drug sensitivity score,ALL-SIL,1.98
same,selective drug sensitivity score,MHH-CALL-4,1.58
O=C(NOCCO)c1ccc2cncn2c1Nc1ccc(I)cc1F [GDC-0623] (top concentration 2500 nM),selective drug sensitivity score,KASUMI-10,-3.4
same,selective drug sensitivity score,RPMI-8402,-3.3
same,selective drug sensitivity score,COG-LL-394h,-3.4
same,selective drug sensitivity score,HPB-ALL,3.6
same,selective drug sensitivity score,COG-LL-355h,-0.4
same,selective drug sensitivity score,NALM-16,0.1
same,selective drug sensitivity score,NALM-6,3.8
same,selective drug sensitivity score,697,-2.5
same,selective drug sensitivity score,COG-LL-402h,-3.2
same,selective drug sensitivity score,KASUMI-9,-0.4
same,selective drug sensitivity score,DND-41,0.2
same,selective drug sensitivity score,RCH-ACV,-3.4
same,selective drug sensitivity score,CCRF-CEM,-1
same,selective drug sensitivity score,380,-0.4
same,selective drug sensitivity score,REH,-3.4
same,selective drug sensitivity score,MOLT-16,-1.6
same,selective drug sensitivity score,KASUMI-2,0.3
same,selective drug sensitivity score,MOLT-14,-1.6
same,selective drug sensitivity score,ALL-SIL,-3.4
same,selective drug sensitivity score,MHH-CALL-4,-2.1
C[C@H]1CN(C2COC2)CCN1c1ccc(Nc2cc(-c3ccnc(N4CCn5c(cc6c5CC(C)(C)C6)C4=O)c3CO)cn(C)c2=O)nc1 [GDC-0853] (top concentration 1000 nM),selective drug sensitivity score,KASUMI-10,0
same,selective drug sensitivity score,RPMI-8402,0
same,selective drug sensitivity score,COG-LL-394h,0
same,selective drug sensitivity score,HPB-ALL,0.4
same,selective drug sensitivity score,COG-LL-355h,0
same,selective drug sensitivity score,NALM-16,0
same,selective drug sensitivity score,NALM-6,0
same,selective drug sensitivity score,697,0
same,selective drug sensitivity score,COG-LL-402h,1.1
same,selective drug sensitivity score,KASUMI-9,0
same,selective drug sensitivity score,DND-41,0
same,selective drug sensitivity score,RCH-ACV,0
same,selective drug sensitivity score,CCRF-CEM,0
same,selective drug sensitivity score,380,0
same,selective drug sensitivity score,REH,0.2
same,selective drug sensitivity score,MOLT-16,0
same,selective drug sensitivity score,KASUMI-2,0
same,selective drug sensitivity score,MOLT-14,0
same,selective drug sensitivity score,ALL-SIL,1.6
same,selective drug sensitivity score,MHH-CALL-4,0.2
CCNc1nc(Nc2cc(F)c(C(=O)N3CCOCC3)cc2OC)ncc1C(F)(F)F [GNE-7915] (top concentration 1000 nM),selective drug sensitivity score,KASUMI-10,-0.06
same,selective drug sensitivity score,RPMI-8402,-0.06
same,selective drug sensitivity score,COG-LL-394h,-0.06
same,selective drug sensitivity score,HPB-ALL,-0.06
same,selective drug sensitivity score,COG-LL-355h,-0.06
same,selective drug sensitivity score,NALM-16,-0.06
same,selective drug sensitivity score,NALM-6,-0.06
same,selective drug sensitivity score,697,-0.06
same,selective drug sensitivity score,COG-LL-402h,-0.06
same,selective drug sensitivity score,KASUMI-9,-0.06
same,selective drug sensitivity score,DND-41,-0.06
same,selective drug sensitivity score,RCH-ACV,-0.06
same,selective drug sensitivity score,CCRF-CEM,-0.06
same,selective drug sensitivity score,380,-0.06
same,selective drug sensitivity score,REH,-0.06
same,selective drug sensitivity score,MOLT-16,-0.06
same,selective drug sensitivity score,KASUMI-2,-0.06
same,selective drug sensitivity score,MOLT-14,-0.06
same,selective drug sensitivity score,ALL-SIL,-0.06
same,selective drug sensitivity score,MHH-CALL-4,-0.06

# From the supplement of paper PMC8967900
